Results published in US20060014813A1, “Pharmaceutical compounds that regenerate in vivo” (priority 2003, published 2006).
One block for each molecule: values may come before it.

How the values were obtained:
COX-2 = conditions: animal models of Parkinson's disease; cited from earlier work
msrA = molecular target: T1, msrA (Bos taurus, UniProt P54149); assay: Calorimetric test of whether a compound is turned over by msrA (protein injected into compound solution); assay type: biochemical, bovine; conditions: compound at 500 μM or as high as possible, three injections of msrA, heat evolved
T1 construct: made in house; host or cells: E. coli
T1 sequence (P54149 21-233): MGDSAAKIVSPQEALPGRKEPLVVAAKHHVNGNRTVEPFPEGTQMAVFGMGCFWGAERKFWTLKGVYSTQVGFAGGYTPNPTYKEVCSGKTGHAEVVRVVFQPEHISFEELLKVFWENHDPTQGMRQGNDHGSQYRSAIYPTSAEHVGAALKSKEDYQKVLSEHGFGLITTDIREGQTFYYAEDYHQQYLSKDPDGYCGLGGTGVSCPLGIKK
Experimental: Compounds 105-108 in the list were only soluble below 1 mM. However, an assessment was made as to whether those compounds were substrates for msrA (i.e., whether they are turned over by the enzyme), by employing the following experimental protocol. The compounds were dissolved in the usual buffer [50 mM Tris, 50 mM KCl, 5 mM TCEP, pH 7.50] at a concentration of 500 μM, or as high as possible. 1.8 ml of this solution was loaded into the calorimetric cell, while the syringe was filled with a […] solution of msrA in the same buffer. After the stirring and equilibration period has elapsed, three injections of protein were made, spaced out over 20 minute intervals. If the compound is a substrate for msrA, a large amount of heat will be evolved after the first injection (several millicalories generated over ˜10 minutes), while the other two injections of protein will register only small heats (tens of microcalories), before the signal quickly returns to the baseline. These smaller heats represent the heat of dilution of the protein into the solution in the calorimetric cell.
Once the substrate has been fully reacted and the heat output has returned to the baseline, further injections of protein show only the heat of dilution of the enzyme.

bovine msrA = molecular target: T2, bovine msrA (Bos taurus, UniProt P54149); assay: Methionine sulfoxide reductase assay by isothermal titration calorimetry (kcat, KM); assay type: biochemical; conditions: substrate for msrA; 300 nM enzyme, pH 7.50, 37° C
T2 construct: made in house; host or cells: E. coli
T2 sequence (P54149 21-233): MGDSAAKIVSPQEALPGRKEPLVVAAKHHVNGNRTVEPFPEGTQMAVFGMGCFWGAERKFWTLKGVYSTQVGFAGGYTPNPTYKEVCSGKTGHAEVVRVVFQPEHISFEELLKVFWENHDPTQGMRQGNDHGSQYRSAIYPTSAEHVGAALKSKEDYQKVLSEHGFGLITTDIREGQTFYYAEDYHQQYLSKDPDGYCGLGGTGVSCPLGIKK
Experimental: (§1) The compounds of the present invention may be assayed for activity both in vitro and in vivo. For example, in order to assay whether a compound of this invention will serve as a regenerable Msr substrate, the compound is titrated in several increments into a solution of the enzyme msrA (pH 7.5, 37 °C, reducing buffer) contained in a microcalorimeter. The heat (ΔH) from the reaction is measured at each step. These power output levels are converted into rates of reaction according to Todd & Gomez, Anal. Biochem., 296, pp. 1-9 (2001), and the resulting rates are plotted versus substrate concentration. From this plot, the kcat and KM are determined according to standard Michaelis-Menton enzyme kinetics.
An assay using isothermal titration calorimetry was developed. […] The quicker such compounds are converted back to their reduced form by MSR, the more equivalents of ROS they will eliminate before being cleared from the body. The assay was used to determine the enzymatic parameters (kcat and KM) of the compounds of this invention interacting with msrA under standard conditions. Chemical modifications that increase kcat, a measure of how quickly a compound was turned over by the enzyme, and/or decrease its KM, a measure of how readily a compound bound to the enzyme, represent improvements in that compound's ability to be efficiently processed by msrA.
In order to run the assay bovine msrA was overexpressed in E. coli and purified according to the method described in Lowther et al., Proc. Natl. Acad. Sci. USA, 97, pp. 6463-6468 (2000), the disclosure of which is herein incorporated by reference. A 300 nM solution of the enzyme was prepared in 50 mM Tris, 50 mM KCl, 4 mM tris(carboxyethyl)phosphine (TCEP), pH 7.50. A 25 mM solution of the compound to be tested was prepared in the identical buffer. A 1.8 ml aliquot of the msrA enzyme solution was loaded into the cell of a VP-ITC instrument from Microcal Corp. (Northampton, Mass.). The test compound solution was loaded into the syringe, and the entire system was allowed to come to thermal equilibrium at 37° C. while stirring at a rate of 300 rpm. Once equilibrium was established, a series of small injections ([…]) of the compound into the protein solution were made, and the increasing power output of the enzyme was measured after each injection, relative to the instrument baseline. These power output levels were converted into rates of reaction, according to Todd & Gomez, Anal. Biochem., 296, pp. 1-9 (2001), the disclosure of which is herein incorporated, and the resulting rates were plotted against substrate concentration. From this plot, the kcat and KM were determined with a computer fitting routine according to standard Michaelis-Menton enzyme kinetics.
To ensure that the compounds would be substrates for MSR, we determined the substrate specificities of MSR by choosing test compounds that contained a sulfoxide moiety and testing those compounds for MSR activity in the enzyme assay described below. Table 1 sets forth compounds that were tested for their ability to serve as MSR substrates using the isothermal titration calorimetry assay described above: […]

[1] = Solubility of test compounds in assay buffer; assay type: physicochemical; conditions: Tris assay buffer, pH 7.5, aqueous buffer; 50 mM Tris, 50 mM KCl, 5 mM TCEP, pH 7.50
reactive oxygen species = conditions: systemic injection; cited from earlier work
[2] = substrate: C[S+]([O-])CC[C@H](N)C(=O)O; assay: purified protein, by the assay type; conditions: other: substrate for msrA, 300 nM enzyme, pH 7.50, 37° C, pH 7.5
[3] = substrate: CC1=C(CC(=O)O)c2cc(F)ccc2/C1=C\c1ccc([S+](C)[O-])cc1; assay: purified protein, by the assay type; conditions: other: substrate for msrA, 300 nM enzyme, pH 7.50, 37° C, pH 7.5
[4] = substrate: CC1=C(CC(=O)NC(CC[S+](C)[O-])C(=O)O)c2cc(F)ccc2/C1=C\c1ccc([S+](C)[O-])cc1; assay: purified protein, by the assay type; assay type: biochemical, bovine; conditions: other: substrate for msrA, 300 nM enzyme, pH 7.50, 37° C, pH 7.5
Experimental: as §1
An assay using isothermal titration calorimetry was developed. […] Chemical modifications that increase kcat, a measure of how quickly a compound was turned over by the enzyme, and/or decrease its KM, a measure of how readily a compound bound to the enzyme, represent improvements in that compound's ability to be efficiently processed by msrA. […]
To ensure that the compounds would be substrates for MSR, we determined the substrate specificities of MSR by choosing test compounds that contained a sulfoxide moiety and testing those compounds for MSR activity in the enzyme assay described below. […]

Molecule: CS(=O)(=O)c1ccc(C2=C(c3ccccc3)C(=O)OC2)cc1 [Vioxx]
- partial recovery of dopamine production (COX-2): ~20%

Molecule: C[S+]([O-])CC[C@H](N)C(=O)O (some centres unmarked) [compound 100, methionine sulfoxide]
- substrate for msrA (turned over by the enzyme) (msrA): produces the large heat output

Molecule: C[S+](C)[O-] [compound 103, DMSO]
- Kcat (bovine msrA): 0.064 s⁻¹
- Km (bovine msrA): 314 µM

Molecule: CSc1ccc(/C=C2/C(C)=C(CC(=O)NC(CC[S+](C)[O-])C(=O)O)c3cc(F)ccc32)cc1 (centres unmarked) [compound 107]
- solubility [1]: < 1000 µM

Molecule: CS(=O)(=O)CC[C@H](N)C(=O)O [compound 109, methionine sulfone]
- Kcat (bovine msrA): 0 s⁻¹
- substrate for msrA (turned over by the enzyme) (msrA): does not get turned over by msrA
- substrate for msrA (turned over by the enzyme) (msrA; listed as methionine sulfone): not a substrate for msrA

Molecule: CC(C)(C)[N+]([O-])=Cc1ccccc1 [phenyl-N-tert-butylnitrone (PBN), phenyl-N-tert-butylnitrone]
- relief of SNL-induced mechanical allodynia (reactive oxygen species): relieves SNL-induced mechanical allodynia in a dose-dependent manner

B1: bovine msrA (Bos taurus) (protein)
chain: MGDSAAKIVSPQEALPGRKEPLVVAAKHHVNGNRTVEPFPEGTQMAVFGMGCFWGAERKFWTLKGVYSTQVGFAGGYTPNPTYKEVCSGKTGHAEVVRVVFQPEHISFEELLKVFWENHDPTQGMRQGNDHGSQYRSAIYPTSAEHVGAALKSKEDYQKVLSEHGFGLITTDIREGQTFYYAEDYHQQYLSKDPDGYCGLGGTGVSCPLGIKK
notes: made in house; host or cells: E. coli
- Km [2]: 504 µM
- kcat [2]: 0.27 s⁻¹
- Km [3]: 112 µM
- kcat [3]: 0.56 s⁻¹
- Km [4]: 7.6 µM
- kcat [4]: 0.27 s⁻¹

The next lines start with the values.

- Kcat (bovine msrA): 0.46 s⁻¹
- Km (bovine msrA): 750 µM
Molecule: C[S+]([O-])c1ccccc1 (centres unmarked) [compound 102, methyphenylsulfoxide]

- solubility [1]: < 1000 µM
Molecule: C[S+]([O-])c1ccc(-c2cc(C(F)(F)F)nn2-c2ccc(S(N)(=O)=O)cc2)cc1 (centres unmarked) [compound 105]

- solubility [1]: < 1000 µM
Molecule: C[S+]([O-])c1ccc(CC(=O)O)cc1 (centres unmarked) [compound 106]

- solubility [1]: < 1000 µM
Molecule: C[S+]([O-])c1ccc(-c2cc(C(=O)O)nn2-c2ccc(S(N)(=O)=O)cc2)cc1 (centres unmarked) [compound 108]
